The subject of one series is HepG2. In words: MTT cytotoxicity assay (Example 30). Format: cell-based. Conditions: Homo sapiens, HepG2, 72 h; MTT, three days after drug addition; read-out: Inhibitory concentration IC50, HepG2. From the text: Cytotoxicity of the compounds is the major property determining their anticancer effect in vivo. One of the parameters used, as the basis for cytotoxicity assays, is the metabolic activity of viable cells. For example, a microtiter assay, which uses (3-(4,5-Dimethylthiazol-2-yl)-2,5-diphenyltetrazolium bromide (MTT), is widely used to quantitate cell proliferation and cytotoxicity. For instance, this assay is used in drug screening programs and in chemosensitivity testing. Because only metabolically active living cells reduce MTT to correspond purple formazan dye, these assays detect viable cells exclusively. The quantity of reduced MTT corresponds to the number of vital cells in the culture.
We have been using the following cell lines: HUH-7 and PLC/PRF/5 cell lines were maintained in DMEM supplemented with 10% fetal bovine serum, penicillin (100 U/ml) and streptomycin (100 μg/ml). Unique HCC-1.2 (3p) and HCC-1.1 (3sp) cell lines (Zilj et al., 2009, Future Oncol, 5(8):1169-79) and Hep3B cells were cultivated in RPMI supplemented with 10% fetal bovine serum, penicillin (100 U/ml) and streptomycin (100 μg/ml). HepG2 cell line was maintained in EMEM supplemented with 10% fetal bovine serum, sodium pyruvate (0.11 g/1), penicillin (100 U/ml) and streptomycin (100 μg/ml). All cell lines were cultivated at 37° C. in 5% CO2. For cytotoxicity assays, 3000 cells (10000 cells in case of HepG2 cell line) were seeded into each well of 96 well plate and the next day tested compounds were added at various concentrations in triplicates. Three days after drug addition MTT stock solution (5 mg/ml) was added into each well and incubated for 4 h. After this incubation period, produced formazan was dissolved by DMSO and final absorbance was measured at 570 nm with Synergy H4 Hybrid Multi-Mode Microplate Reader.

The target in another series is T1, CDK1/cyclin B (Homo sapiens, UniProt P06493).
T1 construct: made in house; host or cells: Sf9 insect cells (baculovirus)
In words: Kinase inhibition assay, recombinant kinase, [γ-33P]ATP. Type of series: biochemical. Particulars: read-out: Kinase inhibition IC50, CDK1. The protocol:
CDK2/Cyclin E kinase was produced in Sf9 insect cells via baculoviral infection and purified on a NiNTA column (Qiagen). CDK5/p35, CDK7Cyclin H/MAT1 and CDK9/Cyclin T1 was purchased from ProQinase GmbH. […] The reactions were stopped by adding 5 μL of 3% aq H3PO4. Aliquots were spotted onto P-81 phosphocellulose (Whatman), washed 3× with 0.5% aq H3PO4 and finally air-dried.
CDK1/cyclin B and CDK2/cyclin E kinases were produced in Sf9 insect cells via baculoviral infection, while CDK5/p35, CDK7/cyclin H/MAT1, and CDK9/cyclin T1 were purchased from ProQinase (Freiburg, Germany) and assayed as described previously (35). The kinase reactions were assayed with 1 mg/ml histone H1 (for CDK2 and CDK5) or (YSPTSPS)2KK peptide (for CDK7 and CDK9) in the presence of 15/0.15/1.5/1.5 […] ATP (for CDK2/CDK5/CDK7CDK9), […] [γ-^33P]ATP and of the test compound in a final volume of […]. The reaction buffer contained 60 mM HEPES-NaOH, pH 7.5, 3 mM MgCl2, 3 mM MnCl2, 3 mM Na-orthovanadate, 1.2 mM DTT, 2.5 mg/50 ml PEG20.000. The reactions were stopped by adding […] of 3% H3PO4. Aliquots were spotted onto P-81 phosphocellulose (Whatman, GE Healthcare Biosciences, Pittsburgh, USA), washed 3 times with 0.5% H3PO4 and finally air-dried. Kinase inhibition was quantified using a FLA-7000 digital image analyzer (Fujifilm, Tokyo, Japan).

Series [1] concerns p53-regulated transcription in Arn8 cells. In words: p53-dependent transcriptional activity, β-galactosidase reporter. Type of series: cell-based. Conditions: 24 h incubation. A digest of the protocol:
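Arn8 melanoma cells stably carrying the p53-responsive pRGCAfoslacZ reporter, exposed to compounds for 24 h. Cells permeabilised with 0.3% Triton X-100 for 15 min, then given 80 μM 4-methylumbelliferyl-β-D-galactopyranoside. β-Galactosidase product fluorescence read after 1 h at 355/460 nm.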

The next series has as its system HCC-1.2 (3p). In words: MTT cytotoxicity assay (Example 30). Format: cell-based. Conditions: Homo sapiens, HCC-1.2, 72 h; MTT, three days after drug addition; read-out: Inhibitory concentration IC50, 3p. (In general: Formazan colour is commonly taken as a measure of viable cells.)
For the next series, the system named is HUH-7. In words: MTT cytotoxicity assay (Example 30). Conditions: Homo sapiens, Huh-7, 72 h; MTT, three days after drug addition; read-out: Inhibitory concentration IC50, HUH-7. Type of series: cell-based.
The next series has as its system HCC-1.1 (3sp). In words: MTT cytotoxicity assay (Example 30). Type of series: cell-based. Conditions: Homo sapiens, 72 h; MTT, three days after drug addition; read-out: Inhibitory concentration IC50, 3sp.
A further series relates to PLC/PRF/5. In words: MTT cytotoxicity assay (Example 30). Type of series: cell-based. Conditions: Homo sapiens, PLC-PRF-5, 72 h; MTT, three days after drug addition; read-out: Inhibitory concentration IC50, PLC/PRF/5.

The structures appear in SMILES notation.

T1 sequence (P06493 whole entry, species assumed): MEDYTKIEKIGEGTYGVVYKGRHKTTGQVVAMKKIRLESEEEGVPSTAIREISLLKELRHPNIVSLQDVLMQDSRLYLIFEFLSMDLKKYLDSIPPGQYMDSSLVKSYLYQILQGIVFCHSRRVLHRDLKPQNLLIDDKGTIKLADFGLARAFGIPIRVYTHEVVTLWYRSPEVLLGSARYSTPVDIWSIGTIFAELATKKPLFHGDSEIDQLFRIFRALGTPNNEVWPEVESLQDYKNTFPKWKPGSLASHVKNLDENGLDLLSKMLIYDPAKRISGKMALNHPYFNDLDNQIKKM
T1 sequence (P14635 whole entry partner, species assumed): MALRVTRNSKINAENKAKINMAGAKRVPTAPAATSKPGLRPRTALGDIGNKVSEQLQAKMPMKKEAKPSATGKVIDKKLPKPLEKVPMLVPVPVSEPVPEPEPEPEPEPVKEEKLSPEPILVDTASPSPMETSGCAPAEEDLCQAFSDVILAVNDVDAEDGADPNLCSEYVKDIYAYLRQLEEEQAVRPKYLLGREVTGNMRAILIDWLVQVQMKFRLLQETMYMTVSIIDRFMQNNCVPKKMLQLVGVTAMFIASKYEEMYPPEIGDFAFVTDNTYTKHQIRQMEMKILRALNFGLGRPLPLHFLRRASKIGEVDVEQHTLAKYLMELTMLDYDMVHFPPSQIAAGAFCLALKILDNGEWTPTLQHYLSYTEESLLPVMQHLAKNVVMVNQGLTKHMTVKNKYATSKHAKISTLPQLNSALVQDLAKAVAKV

Take `Nc1ccccc1-c1ccc(CNc2nc(NC3CCC(N)CC3)nc3c2ncn3C2CCCC2)cn1` (stereo not shown) [BP22, N^2-(4-amino-cyclohexyl)-9-cyclopentyl-N^6-[6-(2-amino-phenyl)-pyridin-3-ylmethyl]-9H-purine-2,6-diamine]: the melting point (commonly the temperature, or range, at which the solid turns liquid) is 173 to 175 °C. Also, the IC50 in the series on HepG2 was > 1000 nM. For the same compound, the IC50 on CDK1/cyclin B is 100 nM. Further, the “Concentration of maximum activation” value in series [1] was found to be 373 nM. The IC50 with HCC-1.2 (3p) amounted to 436 nM. Besides, in the series on HUH-7, the IC50 stood at 642 nM. Also, the IC50 in the series on HCC-1.1 (3sp) turned out to be 516 nM. For the same compound, the IC50 in the series on PLC/PRF/5 is 280 nM.
`COc1ccccc1-c1ccc(CNc2nc(NC3CCC(N)CC3)nc3c2ncn3C2CCCC2)cn1` (stereo not shown) [BP18, N^2-(4-amino-cyclohexyl)-9-cyclopentyl-N^6-[6-(2-methoxy-phenyl)-pyridin-3-ylmethyl]-9H-purine-2,6-diamine] gave a melting point of 184 to 186 °C. Moreover, the IC50 in the series on HepG2 stood at 417 nM. Moreover, the IC50 at CDK1/cyclin B was 118 nM. The “Concentration of maximum activation” value in series [1] was 510 nM. The IC50 in the series on HCC-1.2 (3p) is 791 nM. Besides, the IC50 in the series on HUH-7 turned out to be 618 nM. Besides, the IC50 in the series on HCC-1.1 (3sp) was found to be 791 nM. The IC50 in the series with PLC/PRF/5 was 22 nM.
For the compound `NC1CCC(Nc2nc(NCc3ccc(-c4ccoc4)nc3)c3ncn(C4CCCC4)c3n2)CC1` (stereo not shown) [BP36, N^2-(4-amino-cyclohexyl)-9-cyclopentyl-N^6-(6-furan-3-yl-pyridin-3-ylmethyl)-9H-purine-2,6-diamine], the melting point lay within 165 to 167 °C. Moreover, in the series with HepG2, the IC50 is 131 nM. Further, the IC50 at CDK1/cyclin B was determined as 66 nM. For the same compound, in series [1], the “Concentration of maximum activation” value worked out at 125 nM. Moreover, the IC50 in the series with HCC-1.2 (3p) came out at 258 nM. Also, the IC50 in the series on HUH-7 worked out at 332 nM. The IC50 with HCC-1.1 (3sp) turned out to be 424 nM. Moreover, the IC50 with PLC/PRF/5 was 18 nM.
`NC1CCC(Nc2nc(NCc3ccc(-c4cccs4)cc3)c3ncn(C4CCCC4)c3n2)CC1` (stereo not shown) [BP2, N^2-(4-amino-cyclohexyl)-9-cyclopentyl-N^6-(4-thiophen-2-yl-benzyl)-9H-purine-2,6-diamine]: the melting point lay in the range of 225 to 226 °C. Moreover, in the series on HepG2, the IC50 turned out to be 444 nM. On CDK1/cyclin B, the IC50 is 119 nM. In addition, in series [1], the “Concentration of maximum activation” value is 930 nM. The IC50 in the series on HCC-1.2 (3p) amounted to 317 nM. Moreover, in the series on HUH-7, the IC50 is 319 nM. The IC50 in the series on HCC-1.1 (3sp) was found to be 466 nM. For the same compound, in the series with PLC/PRF/5, the IC50 turned out to be 105 nM.
The compound `OC1CCC(Nc2nc(NCc3ccc(-c4ccco4)nc3)c3ncn(C4CCCC4)c3n2)CC1` (stereo not shown) [BP21, 4-{9-cyclopentyl-6-[(6-furan-2-yl-pyridin-3-ylmethyl)-amino]-9H-purine-2-ylamino}-cyklohexanol] returned a melting point of 164 to 166 °C. In addition, in the series on HepG2, the IC50 stood at 38 nM. Besides, the IC50 on CDK1/cyclin B was determined as 215 nM. The “Concentration of maximum activation” value in series [1] stood at 918 nM. In the series with HCC-1.2 (3p), the IC50 was determined as 167 nM. Besides, in the series with HUH-7, the IC50 was determined as 155 nM. Besides, in the series on HCC-1.1 (3sp), the IC50 came to 408 nM. Moreover, the IC50 in the series with PLC/PRF/5 came to 46 nM.
Consider `NC1CCC(Nc2nc(NCc3ccc(-c4cccc(F)c4)nc3)c3ncn(C4CCCC4)c3n2)CC1` (stereo not shown) [BP19, N^2-(4-amino-cyclohexyl)-9-cyclopentyl-N^6-[6-(3-fluoro-phenyl)-pyridin-3-ylmethyl]-9H-purine-2,6-diamine], for which the melting point was in the range of 121 to 122 °C. The IC50 with HepG2 came to 111 nM. For the same compound, the IC50 on CDK1/cyclin B is 77 nM. Also, the “Concentration of maximum activation” value in series [1] was determined as 167 nM. Moreover, in the series with HCC-1.2 (3p), the IC50 came to 191 nM. Besides, the IC50 in the series with HUH-7 worked out at 281 nM. For the same compound, in the series with HCC-1.1 (3sp), the IC50 is 410 nM. Also, the IC50 with PLC/PRF/5 came out at 9 nM.
Turning to `NC1CCC(Nc2nc(NCc3ccc(-c4ccco4)cc3)c3ncn(C4CCCC4)c3n2)CC1` (stereo not shown) [BP4, N^2-(4-amino-cyclohexyl)-9-cyclopentyl-N^6-(4-furan-2-yl-benzyl)-9H-purine-2,6-diamine], the melting point lay within 157 to 159 °C. In the series with HepG2, the IC50 turned out to be 389 nM. Moreover, the IC50 at CDK1/cyclin B amounted to 148 nM. Also, the “Concentration of maximum activation” value in series [1] came out at 700 nM. The IC50 in the series on HCC-1.2 (3p) amounted to 802 nM. Moreover, the IC50 in the series with HUH-7 stood at 355 nM. In the series with HCC-1.1 (3sp), the IC50 was 813 nM. In addition, in the series with PLC/PRF/5, the IC50 was determined as 106 nM.
As for `NC1CCC(Nc2nc(NCc3ccc(-n4cccn4)cc3)c3ncn(C4CCCC4)c3n2)CC1` (stereo not shown) [BP24, N^2-(4-amino-cyclohexyl)-9-cyclopentyl-N^6-(4-pyrazol-1-yl-benzyl)-9H-purine-2,6-diamine], the melting point is 186 to 187 °C. Further, the IC50 in the series on HepG2 came to 142 nM. The IC50 on CDK1/cyclin B stood at 58 nM. In addition, the “Concentration of maximum activation” value in series [1] worked out at 260 nM. In addition, in the series with HCC-1.2 (3p), the IC50 stood at 169 nM. For the same compound, the IC50 in the series on HUH-7 is 177 nM. In addition, the IC50 in the series on HCC-1.1 (3sp) was found to be 339 nM. Also, the IC50 in the series with PLC/PRF/5 was determined as 12 nM.

(Values after patent US20150368248A1, “2-SUBSTITUTED-6-BIARYLMETHYLAMINO-9-CYCLOPENTYL-9H-PURINE DERIVATIVES, USE THEREOF AS MEDICAMENTS, AND PHARMACEUTICAL COMPOSITIONS” (UNIVERZITA PALACKEHO V OLOMOUCI, priority 2013, published 2015).)
